# Data taken from patent US20090270350A1, “Pyridinone Pyrazole Urea and Pyrimidinone Pyrazole Urea Derivatives” (PFIZER INC., priority 2006, published 2009).
# Where two headings read alike, the source gives them in different places.
# Molecular target: p38α (Homo sapiens, UniProt Q16539)
# Assay: p38α/MK2 cascade assay
# Assay type: biochemical
# Conditions: read-out: p38a/MK2 Cascade 40 min Pre-Incuabtion (% Inhibition): IC50
# Outline: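 In a cascade format, p38α was preincubated 40 min with inhibitor (1000–0.05 nM) before adding 1 nM nonactive MK2 (54-400), 5 μM MgATP and 0.5 μM FITC-Hsp27 peptide. Reaction ran 60 min in HEPES pH 7.5 with MgCl2, DTT, 2% DMSO, then EDTA-quenched. Peptide phosphorylation was measured by Caliper mobility shift to give IC50.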
# [1] = Table 2, same p38α/MK2 cascade assay, 40 minutes preincubation
# [2] = Table 1, inhibitors preincubated with p38α for 40 minutes, phosphorylation of Hsp27 peptide by MK-2, Caliper LabChip 3000
# Chain of p38α (Q16539 whole entry): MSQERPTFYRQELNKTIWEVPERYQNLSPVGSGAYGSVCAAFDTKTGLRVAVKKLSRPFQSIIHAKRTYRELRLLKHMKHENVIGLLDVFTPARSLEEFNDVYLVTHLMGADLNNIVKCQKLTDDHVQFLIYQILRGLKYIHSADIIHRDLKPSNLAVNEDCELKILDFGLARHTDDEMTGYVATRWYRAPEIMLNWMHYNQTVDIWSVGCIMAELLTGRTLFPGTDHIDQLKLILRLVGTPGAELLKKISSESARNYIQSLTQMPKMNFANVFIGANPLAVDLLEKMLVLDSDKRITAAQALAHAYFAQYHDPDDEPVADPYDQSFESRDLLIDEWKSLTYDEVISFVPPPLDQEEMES
IC50 [1] [nM],IC50 [2] [nM],Compound
7.2,–,"COc1cc(Cn2c(C)cc(OCc3ccccc3CNC(=O)Nc3cc(C(C)(C)C)nn3-c3cccc(OCCO)c3)c(Cl)c2=O)ccc1Cl [Example 255, 1-{3-tert-butyl-1-[3-(2-hydroxyethoxy)phenyl]-1H-pyrazol-5-yl}-3-[2-({[3-chloro-1-(4-chloro-3-methoxybenzyl)-6-methyl-2-oxo-1,2-dihydropyridin-4-yl]oxy}methyl)benzyl]urea]"
13.4,–,"COc1ccc(Cn2c(C)cc(OCc3ccccc3CNC(=O)Nc3cc(C(C)(C)C)nn3-c3ccc(C)cc3)c(C)c2=O)c(OC)c1 [Example 245, 1-[3-tert-butyl-1-(4-methylphenyl)-1H-pyrazol-5-yl]-3-[2-({[1-(2,4-dimethoxybenzyl)-3,6-dimethyl-2-oxo-1,2-dihydropyridin-4-yl]oxy}methyl)benzyl]urea]"
–,4.59,"Cc1ccc(-n2nc(C(C)(C)C)cc2NC(=O)NCc2ccccc2COc2cc(C)n(Cc3ccc(O)cc3)c(=O)c2Br)cc1 [Example 100, 1-[2-({[3-bromo-1-(4-hydroxybenzyl)-6-methyl-2-oxo-1,2-dihydropyridin-4-yl]oxy}methyl)benzyl]-3-[3-tert-butyl-1-(4-methylphenyl)-1H-pyrazol-5-yl]urea]"
–,6.9,"COc1ccc(Cn2c(C)cc(OCc3ccccc3CNC(=O)Nc3cc(C(C)(C)C)nn3-c3cccc(O)c3)c(Cl)c2=O)cc1Cl [Example 65, 1-[3-tert-butyl-1-(3-hydroxyphenyl)-1H-pyrazol-5-yl]-3-[2-({[3-chloro-1-(3-chloro-4-methoxybenzyl)-6-methyl-2-oxo-1,2-dihydropyridin-4-yl]oxy}methyl)benzyl]urea]"
1.5,–,"Cc1ccc(C(=O)NCC(O)CO)cc1-n1c(C)cc(OCc2ccccc2CNC(=O)Nc2cc(C(C)(C)C)nn2-c2ccc(O)cc2)c(Cl)c1=O (centres unmarked) [Example 217, 3-{4-[(2-{[({[3-tert-butyl-1-(4-hydroxyphenyl)-1H-pyrazol-5-yl]amino}carbonyl)amino]methyl}benzyl)oxy]-3-chloro-6-methyl-2-oxopyridin-1(2H)-yl}-N-(2,3-dihydroxypropyl)-4-methylbenzamide]"
15.4,–,"COc1ccc(Cn2c(C)cc(OCc3ccccc3CNC(=O)Nc3cc(C(C)(C)C)nn3-c3ccc(Cl)c(O)c3)c(C)c2=O)cc1Cl [Example 260, 1-[3-tert-butyl-1-(4-chloro-3-hydroxyphenyl)-1H-pyrazol-5-yl]-3-[2-({[1-(3-chloro-4-methoxybenzyl)-3,6-dimethyl-2-oxo-1,2-dihydropyridin-4-yl]oxy}methyl)benzyl]urea]"
2.6,–,"CNC(=O)c1ccc(C)c(-n2c(C)cc(OCc3ccccc3CNC(=O)Nc3cc(C(C)(C)C)nn3-c3cccc(OCCO)c3)c(Cl)c2=O)c1 [Example 211, 3-[4-{[2-({[({3-tert-butyl-1-[3-(2-hydroxyethoxy)phenyl]-1H-pyrazol-5-yl}amino)carbonyl]amino}methyl)benzyl]oxy}-3-chloro-6-methyl-2-oxopyridin-1(2H)-yl]-N,4-dimethylbenzamide]"
–,2.45,"CNC(=O)c1ccc(C)c(-n2c(C)cc(OCc3ccc(F)cc3CNC(=O)Nc3cc(C(C)(C)C)nn3-c3cccc(Cl)c3)c(Cl)c2=O)c1 [Example 194, 3-{4-[(2-{[({[3-tert-butyl-1-(3-chlorophenyl)-1H-pyrazol-5-yl]amino}carbonyl)amino]methyl}-4-fluorobenzyl)oxy]-3-chloro-6-methyl-2-oxopyridin-1(2H)-yl}-N,4-dimethylbenzamide]"
–,16.3,"CCc1c(OCc2ccccc2CNC(=O)Nc2cc(C(C)(C)C)nn2-c2ccc(C)cc2)ncn(Cc2ccc(OC)cc2)c1=O [Example 114, 1-[3-tert-butyl-1-(4-methylphenyl)-1H-pyrazol-5-yl]-3-[2-({[5-ethyl-1-(4-methoxybenzyl)-6-oxo-1,6-dihydropyrimidin-4-yl]oxy}methyl)benzyl]urea]"
–,15.5,"COc1ccc(Cn2c(C)cc(OCc3ccccc3CNC(=O)Nc3cc(C(C)(C)C)nn3-c3ccccc3)c(Br)c2=O)c(OC)c1 [Example 120, 1-[2-({[3-bromo-1-(2,4-dimethoxybenzyl)-6-methyl-2-oxo-1,2-dihydropyridin-4-yl]oxy}methyl)benzyl]-3-(3-tert-butyl-1-phenyl-1H-pyrazol-5-yl)urea]"
9.6,–,"COc1ccc(Cn2c(C)cc(OCc3ccccc3CNC(=O)Nc3cc(C(C)(C)C)nn3-c3ccc(O)c(Cl)c3)c(C)c2=O)cc1C#N [Example 249, 1-[3-tert-butyl-1-(3-chloro-4-hydroxyphenyl)-1H-pyrazol-5-yl]-3-[2-({[1-(3-cyano-4-methoxybenzyl)-3,6-dimethyl-2-oxo-1,2-dihydropyridin-4-yl]oxy}methyl)benzyl]urea]"
–,11,"COc1ccc(Cn2c(C)cc(OCc3ccccc3CNC(=O)Nc3cc(C(C)(C)C)nn3-c3ccc(F)cc3F)c(Br)c2=O)c(OC)c1 [Example 121, 1-[2-({[3-bromo-1-(2,4-dimethoxybenzyl)-6-methyl-2-oxo-1,2-dihydropyridin-4-yl]oxy}methyl)benzyl]-3-[3-tert-butyl-1-(2,4-difluorophenyl)-1H-pyrazol-5-yl]urea]"
1.8,–,"Cc1ccc(C(=O)NCCO)cc1-n1c(C)cc(OCc2ccccc2CNC(=O)Nc2cc(C(C)(C)C)nn2-c2ccc(O)cc2)c(Cl)c1=O [Example 216, 3-{4-[(2-{[({[3-tert-butyl-1-(4-hydroxyphenyl)-1H-pyrazol-5-yl]amino}carbonyl)amino]methyl}benzyl)oxy]-3-chloro-6-methyl-2-oxopyridin-1(2H)-yl}-N-(2-hydroxyethyl)-4-methyl-benzamide]"

# The remaining lines, values behind:
Compound,IC50 [1] [nM],IC50 [2] [nM]
"COc1ccc(Cn2c(C)cc(OCc3ccccc3CNC(=O)Nc3cc(C(C)(C)C)nn3-c3cccc(OCCO)c3)c(Cl)c2=O)cc1Cl [Example 265, 1-{3-tert-butyl-1-[3-(2-hydroxyethoxy)phenyl]-1H-pyrazol-5-yl}-3-[2-({[3-chloro-1-(3-chloro-4-methoxybenzyl)-6-methyl-2-oxo-1,2-dihydropyridin-4-yl]oxy}methyl)benzyl]urea]",8.4,–
"COc1cccc(Cn2c(C)cc(OCc3ccc(F)cc3CNC(=O)Nc3cc(C(C)(C)C)nn3-c3cccc(O)c3)c(Cl)c2=O)c1 [Example 50, 1-[3-tert-butyl-1-(3-hydroxyphenyl)-1H-pyrazol-5-yl]-3-[2-({[3-chloro-1-(3-methoxybenzyl)-6-methyl-2-oxo-1,2-dihydropyridin-4-yl]oxy}methyl)-5-fluorobenzyl]urea]",–,6.5
"COc1ccc(Cn2c(C)cc(OCc3ccccc3CNC(=O)Nc3cc(C(C)(C)C)nn3-c3cccc(O)c3)c(C)c2=O)cc1Cl [Example 259, 1-[3-tert-butyl-1-(3-hydroxyphenyl)-1H-pyrazol-5-yl]-3-[2-({[1-(3-chloro-4-methoxybenzyl)-3,6-dimethyl-2-oxo-1,2-dihydro-pyridin-4-yl]oxy}methyl)benzyl]urea]",9.2,–
"COc1cccc(-n2nc(C(C)(C)C)cc2NC(=O)NCc2ccccc2COc2cc(C)n(Cc3ccccc3)c(=O)c2C)c1 [Example 128-B, 1-(2-{[(1-benzyl-3,6-dimethyl-2-oxo-1,2-dihydropyridin-4-yl)oxy]methyl}benzyl)-3-[3-tert-butyl-1-(3-methoxyphenyl)-1H-pyrazol-5-yl]urea]",–,12.5
"COc1cccc(-n2nc(C(C)(C)C)cc2NC(=O)NCc2ccccc2COc2cc(C)n(Cc3ccc(OC)cc3OC)c(=O)c2C)c1 [Example 123, 1-[3-tert-butyl-1-(3-methoxyphenyl)-1H-pyrazol-5-yl]-3-[2-({[1-(2,4-dimethoxybenzyl)-3,6-dimethyl-2-oxo-1,2-dihydropyridin-4-yl]oxy}methyl)benzyl]urea]",–,11.1
"COc1cccc(Cn2c(C)cc(OCc3ccc(F)cc3CNC(=O)Nc3cc(C(C)(C)C)nn3-c3ccc(O)c(Cl)c3)c(Cl)c2=O)c1 [Example 46, 1-[3-tert-butyl-1-(3-chloro-4-hydroxyphenyl)-1H-pyrazol-5-yl]-3-[2-({[3-chloro-1-(3-methoxybenzyl)-6-methyl-2-oxo-1,2-dihydropyridin-4-yl]oxy}methyl)-5-fluorobenzyl]urea]",–,4
"CSc1ccccc1Cn1c(C)cc(OCc2ccccc2CNC(=O)Nc2cc(C(C)(C)C)nn2-c2ccc(O)c(Cl)c2)c(Cl)c1=O [Example 270, 1-[3-tert-butyl-1-(3-chloro-4-hydroxyphenyl)-1H-pyrazol-5-yl]-3-{2-[({3-chloro-6-methyl-1-[2-(methylthio)benzyl]-2-oxo-1,2-dihydropyridin-4-yl}oxy)methyl]benzyl}urea]",32.7,–
"COc1cccc(Cn2c(C)cc(OCc3ccc(F)cc3CNC(=O)Nc3cc(C(C)(C)C)nn3-c3ccc(Cl)c(O[Si](C)(C)C(C)(C)C)c3)c(Cl)c2=O)c1 [Example 43, 1-[3-tert-butyl-1-(3-{[tert-butyl(dimethyl)silyl]oxy}-4-chlorophenyl)-1H-pyrazol-5-yl]-3-[2-({[3-chloro-1-(3-methoxybenzyl)-6-methyl-2-oxo-1,2-dihydropyridin-4-yl]oxy}methyl)-5-fluorobenzyl]urea]",–,43.1
"COc1cccc(Cn2c(C)cc(OCc3ccccc3CNC(=O)Nc3cc(C(C)(C)C)nn3-c3cccc(OCCO)c3)cc2=O)c1 [Example 38, 1-{3-tert-butyl-1-[3-(2-hydroxyethoxy)phenyl]-1H-pyrazol-5-yl}-3-[2-({[1-(3-methoxybenzyl)-6-methyl-2-oxo-1,2-dihydropyridin-4-yl]oxy}methyl)benzyl]urea]",–,31.1
"CSc1ccccc1Cn1c(C)cc(OCc2ccccc2CNC(=O)Nc2cc(C(C)(C)C)nn2-c2ccc(O)cc2)c(Cl)c1=O [Example 268, 1-[3-tert-butyl-1-(4-hydroxyphenyl)-1H-pyrazol-5-yl]-3-{2-[({3-chloro-6-methyl-1-[2-(methylthio)benzyl]-2-oxo-1,2-dihydro-pyridin-4-yl}oxy)methyl]benzyl}urea]",23.6,–
